Our source for the melting point and IC50 values is patent US7345068B2, “Aromatic amino acid derivatives and medicinal compositions” (priority 2002, dated 2008).

The melting point is the temperature, or range, at which the solid turns liquid. As usually defined, the IC50 is the midpoint of a concentration-inhibition curve. Low readings indicate inhibition by little substance, high ones a need for much substance.

SMILES strings stand for the structures. Structures can show the parent of a compound that is named as a salt.

One series addresses T1, LAT1 (Homo sapiens, UniProt Q01650).
T1 construct: Using human bladder cancer cell strain T24 cells, in which LAT1 only was strongly expressed; endogenous in cells; host or cells: T24 human bladder cancer cells
Put plainly: LAT1 inhibiting activity: inhibition of 14C-L-leucine uptake in T24 cells. To be noted: 1 μM 14C-Leu, 1-minute uptake. The class given is cell-based. On the procedure: 1) To each of the weighed test compounds, DMSO was added to prepare a 100 mM solution or suspension as a DMSO stock. In an assay, the stock was diluted 1,000 fold with a buffer described below. The final concentration of the test compound was 100 μM and the final concentration of DMSO was 0.1%.
2) The LAT1 inhibiting activity of the test compound was determined in the following manner. Using human bladder cancer cell strain T24 cells, in which LAT1 only was strongly expressed, inhibiting activity of each test compound against “^14C”-L-leucine uptake was determined as the LAT1 inhibiting activity.
T24 cells in a logarithmic growth-phase were transferred to a 24-well plate at 0.8×10^5 cell/well and cultured at 37° C. for 2 days. After the plate was incubated at 37° C. on a water bath for 5 minutes, the fixed cells were washed three times with a Hank's balanced salt solution (HBSS: 25 mM HEPES, 125 mM choline chloride, 5.6 mM glucose, 4.8 mM KCl, 1.2 mM MgSO4, 1.2 mM KH2PO4, 1.3 mM CaCl2, pH 7.4) warmed to 37° C., not containing Na^+, to which 500 μl of HBSS (37° C.) was added. Then, further incubation was carried out for 7 minutes.
After the incubation was finished, a supernatant was replaced with HBSS containing 1 μM ^14C-Leu and 100 μM test compound (37° C.), followed by 1-minute uptake. Then, the cells were washed three times with HBSS of 4° C. The washed cells were added with 500 μl of 0.1 N NaOH to dissolve the cells for 20 minutes. The cell solution was transferred to a vial, to which 3 ml of a scintillator was added to measure the radioactivity with a liquid scintillation counter.
Inhibition % was calculated by the following formula. Inhibition %=100−(radioactivity of the well added with the test compound)/(radioactivity of the well not added with the test compound)×100

T1 sequence (Q01650 whole entry): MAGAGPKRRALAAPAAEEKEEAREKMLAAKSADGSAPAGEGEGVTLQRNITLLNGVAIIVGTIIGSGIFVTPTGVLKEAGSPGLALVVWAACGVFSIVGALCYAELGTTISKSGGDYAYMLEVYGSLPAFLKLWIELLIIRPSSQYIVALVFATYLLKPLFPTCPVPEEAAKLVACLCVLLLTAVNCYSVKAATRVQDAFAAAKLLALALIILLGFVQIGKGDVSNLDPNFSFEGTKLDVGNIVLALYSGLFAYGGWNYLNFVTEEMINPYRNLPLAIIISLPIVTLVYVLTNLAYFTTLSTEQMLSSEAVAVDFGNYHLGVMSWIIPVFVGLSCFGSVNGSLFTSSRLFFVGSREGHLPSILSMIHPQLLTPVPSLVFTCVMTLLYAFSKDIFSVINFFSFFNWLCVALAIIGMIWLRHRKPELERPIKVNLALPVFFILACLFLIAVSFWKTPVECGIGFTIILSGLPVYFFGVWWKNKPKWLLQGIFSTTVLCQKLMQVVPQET
T1 sequence (P08195 102-630 partner): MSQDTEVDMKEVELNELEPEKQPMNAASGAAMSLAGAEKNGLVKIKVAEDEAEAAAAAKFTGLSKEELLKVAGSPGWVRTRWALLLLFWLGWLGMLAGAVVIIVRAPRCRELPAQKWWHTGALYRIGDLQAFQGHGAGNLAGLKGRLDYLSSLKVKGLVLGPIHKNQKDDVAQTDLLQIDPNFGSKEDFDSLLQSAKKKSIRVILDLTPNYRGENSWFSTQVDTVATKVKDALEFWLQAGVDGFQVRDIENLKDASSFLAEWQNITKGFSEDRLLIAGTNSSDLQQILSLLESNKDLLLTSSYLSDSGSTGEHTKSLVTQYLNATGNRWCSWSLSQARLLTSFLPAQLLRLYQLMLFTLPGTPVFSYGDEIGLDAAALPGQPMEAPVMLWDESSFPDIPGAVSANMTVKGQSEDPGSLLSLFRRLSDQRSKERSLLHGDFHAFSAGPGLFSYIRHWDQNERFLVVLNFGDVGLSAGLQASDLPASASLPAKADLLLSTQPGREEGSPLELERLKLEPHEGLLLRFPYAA

On to `COC(=O)c1c(-c2ccccc2)oc2c(COc3c(Cl)cc(C[C@H](N)C(=O)O)cc3Cl)cccc2c1=O` (as salt: HCl) [Example 87], for which the melting point is 222.5 to 224 °C (dec.). Same read-out and setting: the result for `CN(C)c1ccc(-c2cccc(Oc3cccc(C[C@H](N)C(=O)O)c3)c2)cn1` (as salt: hydrochloride) [Example 98] reads 223 to 228 °C (dec.); that for `N[C@@H](Cc1cc(I)c(OCCCBr)c(I)c1)C(=O)O` [Example 1, O-(3-bromopropyl)-3,5-diiodo-L-tyrosine], 213 to 215 °C (dec.). Consider `N[C@@H](Cc1cc(Cl)c(OCc2cccc3nc(-c4ccc(O)cc4)oc23)c(Cl)c1)C(=O)O` [Example 22], for which the melting point is 239 to 241 °C (dec.). The compound further showed an IC50 at LAT1 of 200 nM. The corresponding values for `N[C@@H](Cc1cc(Cl)c(OCc2cccc3nc(-c4ccc(Cl)cc4)oc23)c(Cl)c1)C(=O)O` [Example 30] are 209 to 211 °C and 300 nM. The corresponding values for `N[C@@H](Cc1cc(Cl)c(OCc2cccc3nc(-c4ccc(F)cc4)oc23)c(Cl)c1)C(=O)O` [Example 32] are 233 to 236 °C (dec.) and 240 nM. The corresponding values for `N[C@@H](Cc1cc(Cl)c(OCc2cccc3nc(-c4ccncc4)oc23)c(Cl)c1)C(=O)O` [Example 33] are 214 to 218 °C (dec.) and 150 nM. For the compound `N[C@@H](Cc1cc(Cl)c(OCc2cccc3nc(-c4ccco4)oc23)c(Cl)c1)C(=O)O` [Example 34], the melting point is 227 to 230 °C (dec.). Besides, the IC50 on LAT1 was 290 nM. Taken in the same sequence, the figures for `COc1ccc(-c2nc3cc(C)cc(COc4c(Cl)cc(C[C@H](N)C(=O)O)cc4Cl)c3o2)cc1` [Example 35] were 210 to 213 °C (dec.) and 280 nM. Taken in the same sequence, the figures for `Cc1ccc(-c2nc3cccc(COc4c(Cl)cc(C[C@H](N)C(=O)O)cc4Cl)c3o2)cc1` [Example 36] were 221 to 231 °C (dec.) and 200 nM. Take `CN(C)c1ccc(-c2nc3cccc(COc4c(Cl)cc(C[C@H](N)C(=O)O)cc4Cl)c3o2)cc1` [Example 37]: the melting point was 219 to 222 °C (dec.). Also, half-maximal inhibition on LAT1 (IC50) was put at 130 nM.

As for `N[C@@H](Cc1cc(Cl)c(OCc2cccc3oc(-c4ccccc4)nc23)c(Cl)c1)C(=O)O` [Example 38], the melting point was 219 to 223 °C (dec.). The IC50 against LAT1 was determined as 330 nM. Taken in the same sequence, the figures for `Cc1c(-c2ccccc2)oc2c(COc3c(Cl)cc(C[C@H](N)C(=O)O)cc3Cl)cccc2c1=O` [Example 39] were 202 to 204 °C (dec.) and 230 nM. The compound `N[C@@H](Cc1cc(Cl)c(OCc2cccc3nc(-c4cccc(O)c4)oc23)c(Cl)c1)C(=O)O` [Example 48] gave an IC50 against LAT1 of 300 nM. In the case of `N[C@@H](Cc1cccc(Oc2ccc3ccccc3c2)c1)C(=O)O` [Example 49-2), 3-(2-naphthyloxy)-L-phenylalanine], the melting point was 210 to 214 °C (dec.). For the same compound, the IC50 against LAT1 was 100 nM. Regarding `N[C@@H](Cc1cccc(Oc2ccc3[nH]ccc3c2)c1)C(=O)O` [Example 52], the melting point is 205 to 210 °C (dec.). This compound also displayed an IC50 at LAT1 of 500 nM. The corresponding values for `N[C@@H](Cc1cccc(Oc2cccc(-c3ccccc3)c2)c1)C(=O)O` [Example 53] are 203 to 206 °C (dec.) and 120 nM. With `N[C@@H](Cc1cccc(Oc2cccc3ccccc23)c1)C(=O)O` [Example 54], the melting point was 180 to 186 °C (dec.). The same compound registered an IC50 at LAT1 of 710 nM.

With `COc1ccc2cc(Oc3cccc(C[C@H](N)C(=O)O)c3)ccc2c1` [Example 55, 3-[2-(6-methoxy)naphthyloxy]-L-phenylalanine], the melting point is 202 to 206 °C (dec.). At LAT1, this compound registered an IC50 of 290 nM. The corresponding values for `N[C@@H](Cc1cccc(Oc2ccc3cc(O)ccc3c2)c1)C(=O)O` [Example 56, 3-[2-(6-hydroxy)naphthyloxy]-L-phenylalanine] are 210 to 220 °C (dec.) and 260 nM. In the case of `N[C@@H](Cc1cccc(OCc2ccc3ccccc3c2)c1)C(=O)O` [Example 58, 3-[(2-naphthyl)methoxy]-L-phenylalanine], the melting point is 201 to 204 °C (dec.). The IC50 against LAT1 amounted to 490 nM. Taken in the same sequence, the figures for `N[C@@H](Cc1cc(Cl)c(OCc2cccc3nc(Cc4ccccc4)oc23)c(Cl)c1)C(=O)O` [Example 63] were 198 to 200.5 °C (dec.) and 940 nM. The corresponding values for `CN(C)c1ccc(-c2nc3cccc(COc4c(Cl)cc(C[C@H](N)C(=O)O)cc4Cl)c3o2)cn1` [Example 65] are 233 to 236 °C (dec.) and 330 nM. The corresponding values for `CN(C)c1ncc(-c2nc3cccc(COc4c(Cl)cc(C[C@H](N)C(=O)O)cc4Cl)c3o2)cn1` [Example 70] are 218 to 221 °C (dec.) and 290 nM. Take `NC(Cc1cc(Cl)c(OCc2cccc3c2OC(c2ccccc2)CN3)c(Cl)c1)C(=O)O` (stereo not shown) [Example 71]: the melting point was 199 to 204 °C (dec.). This compound returned an IC50 against LAT1 of 370 nM.

With `CN(CCO)c1ncc(-c2nc3cccc(COc4c(Cl)cc(C[C@H](N)C(=O)O)cc4Cl)c3o2)cn1` [Example 72], the melting point is 212 to 215 °C (dec.). Inhibition against LAT1 was half-maximal at 360 nM (IC50).

Take `N[C@@H](Cc1cc(Cl)c(OCc2cccc3nc4n(c23)Cc2ccccc2-4)c(Cl)c1)C(=O)O` [Example 73]: the melting point was 200 to 208 °C (dec.). In addition, the IC50 at LAT1 worked out at 110 nM. Taken in the same sequence, the figures for `COc1ncc(-c2nc3cccc(COc4c(Cl)cc(C[C@H](N)C(=O)O)cc4Cl)c3s2)c(OC)n1` [Example 74] were 210 to 215 °C (dec.) and 950 nM. Taken in the same sequence, the figures for `N[C@@H](Cc1cc(Cl)c(OCc2cccc3c(=O)c(CO)c(-c4ccccc4)oc23)c(Cl)c1)C(=O)O` [Example 81] were 218 to 221 °C (dec.) and 200 nM. Taken in the same sequence, the figures for `Nc1c(-c2ccccc2)oc2c(COc3c(Cl)cc(C[C@H](N)C(=O)O)cc3Cl)cccc2c1=O` [Example 83] were 226 to 230 °C (dec.) and 550 nM. Turning to `N[C@@H](Cc1cc(Cl)c(OCc2cccc3nc(-c4ccccc4)[nH]c23)c(Cl)c1)C(=O)O` [Example 85], the melting point was 183 to 187 °C (dec.). Besides, at LAT1, the IC50 was found to be 270 nM.

Regarding `COC(=O)c1c(-c2ccccc2)oc2c(COc3c(Cl)cc(C[C@H](N)C(=O)O)cc3Cl)cccc2c1=O` [Example 87], on LAT1, the IC50 stood at 230 nM. On to `Cc1cc(C[C@H](N)C(=O)O)cc(C)c1OCc1cccc2nc(-c3ccccc3)oc12` [Example 90], for which the melting point is 203 to 210 °C (dec.). Besides, the IC50 against LAT1 turned out to be 110 nM. The corresponding values for `Cc1c(-c2ccccc2)oc2c(CNc3c(Cl)cc(C[C@H](N)C(=O)O)cc3Cl)cccc2c1=O` [Example 91] are 207 to 210 °C (dec.) and 100 nM. The corresponding values for `N[C@@H](Cc1cccc(Oc2ccc(-c3ccccc3)cc2)c1)C(=O)O` [Example 93] are 214 to 217 °C (dec.) and 170 nM.

As to `N[C@@H](Cc1cccc(Oc2cccc(-c3ccncc3)c2)c1)C(=O)O` [Example 96], the melting point is 182 to 185 °C (dec.). The same compound registered an IC50 on LAT1 of 840 nM. The corresponding values for `CN(C)c1ccc(-c2cccc(Oc3cccc(C[C@H](N)C(=O)O)c3)c2)cn1` [Example 97] are 214 to 218 °C (dec.) and 10 nM. For the compound `CN(C)c1ccc(-c2cccc(Oc3cccc(C[C@H](N)C(=O)O)c3)c2)cn1` [Example 98], it took 200 nM to reach half-maximal inhibition against LAT1 (IC50). With `N[C@@H](Cc1cccc(Oc2cccc(-c3ccccn3)c2)c1)C(=O)O` [Example 99], the melting point was 187 to 192 °C (dec.). Moreover, 520 nM corresponded to half-maximal inhibition against LAT1 (IC50). Taken in the same sequence, the figures for `N[C@@H](Cc1cccc(Oc2cccc(-c3cccnc3)c2)c1)C(=O)O` [Example 100] were 200 to 204 °C (dec.) and 220 nM. Take `N[C@@H](Cc1cccc(Oc2cccc(-c3cccc(Cl)c3)c2)c1)C(=O)O` [Example 102]: the melting point is 193 to 198 °C (dec.). The same compound displayed an IC50 at LAT1 of 60 nM.

Take `N[C@@H](Cc1cccc(Oc2cccc(-c3ccc(Cl)cc3)c2)c1)C(=O)O` [Example 103]: the melting point was 204 to 208 °C (dec.). Moreover, on LAT1, half-maximal inhibition (IC50) was put at 60 nM. The corresponding values for `N[C@@H](Cc1cccc(Oc2cccc(-c3cnc4ccccc4c3)c2)c1)C(=O)O` [Example 106] are 185 to 190 °C (dec.) and 830 nM.

For `CN(C)c1ncc(-c2cccc(Oc3cccc(C[C@H](N)C(=O)O)c3)c2)cn1` [Example 108], the melting point is 191 to 194 °C (dec.). In addition, on LAT1, the IC50 came out at 670 nM.
